Columns and labels:
[1] = DRUGMATRIX: Purinergic P2X radioligand binding (ligand: [3H] alpha, beta-Methylene-ATP); format: cell membranes, Oryctolagus cuniculus, New Zealand albino, Urinary bladder, Membrane; settings: Not Active = under 50% inhibition at 10 µM
[2] = target: C-C chemokine receptor type 2 (Homo sapiens, UniProt P41597); format: cell membranes, CHO-K1, Membrane; settings: cho-k1; further: in other assays of this panel Not Active means under 50% inhibition at 10 µM
Cathepsin G = target: T1, Cathepsin G (Homo sapiens, UniProt P08311); format: tissue-based; settings: neutrophil;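 further: inhibition of Cathepsin G enzyme activity, tested on an AMC-conjugated peptide substrate; in other assays of this panel Not Active means under 50% inhibition at 10 µM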
T1 sequence (P08311 whole entry): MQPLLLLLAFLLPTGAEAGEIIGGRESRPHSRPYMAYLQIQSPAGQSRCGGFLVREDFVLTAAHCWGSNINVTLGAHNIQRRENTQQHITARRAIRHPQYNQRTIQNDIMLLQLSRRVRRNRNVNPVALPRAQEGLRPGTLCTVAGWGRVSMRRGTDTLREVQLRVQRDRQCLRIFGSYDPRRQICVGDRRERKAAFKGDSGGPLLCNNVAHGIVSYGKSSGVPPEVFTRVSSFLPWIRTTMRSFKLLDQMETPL

[3] = DRUGMATRIX: Leukotriene, BLT (LTB4) radioligand binding (ligand: [3H]LTB4); format: cell membranes, Membrane; settings: u-937; Not Active = under 50% inhibition at 10 µM
Thromboxane-A synthase = target: T2, Thromboxane-A synthase (Homo sapiens, UniProt P24557); experiment: biochemical; format: tissue-based, Platelet; settings: platelet;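 further: enzyme inhibition assay with PGH2 supplied as substrate; in other assays of this panel Not Active means under 50% inhibition at 10 µM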
T2 sequence (P24557 whole entry): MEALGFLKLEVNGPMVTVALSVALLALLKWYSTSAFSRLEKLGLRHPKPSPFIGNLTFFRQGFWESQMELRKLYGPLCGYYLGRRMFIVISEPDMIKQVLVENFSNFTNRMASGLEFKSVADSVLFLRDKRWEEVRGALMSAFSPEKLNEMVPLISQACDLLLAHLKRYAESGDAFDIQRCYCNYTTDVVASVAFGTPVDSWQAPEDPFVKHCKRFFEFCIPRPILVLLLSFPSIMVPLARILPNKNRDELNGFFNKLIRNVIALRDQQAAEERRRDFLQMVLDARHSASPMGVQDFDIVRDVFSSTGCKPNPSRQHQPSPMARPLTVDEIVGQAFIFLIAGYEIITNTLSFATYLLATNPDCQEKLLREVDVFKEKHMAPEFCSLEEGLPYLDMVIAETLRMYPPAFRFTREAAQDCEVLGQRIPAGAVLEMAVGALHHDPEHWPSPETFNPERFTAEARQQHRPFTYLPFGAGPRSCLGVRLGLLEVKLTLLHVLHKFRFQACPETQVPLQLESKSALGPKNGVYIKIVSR

[4] = DRUGMATRIX: Atrial Natriuretic Factor (ANF) radioligand binding (ligand: [125I] ANF (rat)); format: cell membranes, Cavia porcellus, Dunkin-Hartley, Adrenal gland, Membrane; settings: Not Active = under 50% inhibition at 10 µM
[5] = DRUGMATRIX: ATPase, Na+/K+ enzyme inhibition (substrate: ATP); format: tissue-based, Sus scrofa, Heart; settings: Not Active = under 50% inhibition at 10 µM
[6] = target: Aldo-keto reductase family 1 member B1 (Rattus norvegicus, UniProt P07943); experiment: biochemical; format: tissue-based, Lens of camera-type eye;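 further: inhibition of aldose reductase enzyme activity, measured with DL-glyceraldehyde as the substrate; in other assays of this panel Not Active means under 50% inhibition at 10 µM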

C-C chemokine receptor type 2, sequence (P41597 whole entry): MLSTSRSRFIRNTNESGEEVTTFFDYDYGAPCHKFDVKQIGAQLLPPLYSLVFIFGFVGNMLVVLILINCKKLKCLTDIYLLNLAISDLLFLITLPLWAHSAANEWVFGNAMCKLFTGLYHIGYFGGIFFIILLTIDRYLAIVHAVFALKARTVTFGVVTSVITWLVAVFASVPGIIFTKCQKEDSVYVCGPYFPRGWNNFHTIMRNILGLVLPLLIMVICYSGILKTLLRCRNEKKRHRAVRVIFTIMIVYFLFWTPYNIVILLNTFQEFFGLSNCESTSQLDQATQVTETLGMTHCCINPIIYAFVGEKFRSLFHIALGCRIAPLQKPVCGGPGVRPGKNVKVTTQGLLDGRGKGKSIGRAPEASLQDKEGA

CC(=O)O[C@@]12CO[C@@H]1C[C@H](O)[C@@]1(C)C(=O)[C@H](O)C3=C(C)[C@@H](OC(=O)[C@H](O)[C@@H](NC(=O)OC(C)(C)C)c4ccccc4)C[C@@](O)([C@@H](OC(=O)c4ccccc4)[C@H]21)C3(C)C.O.O.O [DOCETAXEL]
Not Active: IC50 [1] | Ki [1] | IC50 [2] | IC50 (Cathepsin G) | IC50 [3] | Ki [3] | IC50 (Thromboxane-A synthase) | IC50 [4] | Ki [4] | IC50 [5] | Ki [5] | IC50 [6]

N=C(N)NCCN1CCCCCCC1 [GUANETHIDINE]
Not Active: IC50 [1] | Ki [1] | IC50 [2] | IC50 (Cathepsin G) | IC50 [3] | Ki [3] | IC50 (Thromboxane-A synthase) | IC50 [4] | Ki [4] | IC50 [5] | Ki [5] | IC50 [6]

CNCCc1ccccn1 [BETAHISTINE]
Not Active: IC50 [1] | Ki [1] | IC50 [2] | IC50 (Cathepsin G) | IC50 [3] | Ki [3] | IC50 (Thromboxane-A synthase) | IC50 [4] | Ki [4] | IC50 [5] | Ki [5] | IC50 [6]

COc1cc2nc(N3CCN(C(=O)C4COc5ccccc5O4)CC3)nc(N)c2cc1OC (stereo not drawn) [DOXAZOSIN]
Not Active: IC50 [1] | Ki [1] | IC50 [2] | IC50 (Cathepsin G) | IC50 [3] | Ki [3] | IC50 (Thromboxane-A synthase) | IC50 [4] | Ki [4] | IC50 [5] | Ki [5] | IC50 [6]

Clc1cccc(Cl)c1NC1=NCCN1 [CLONIDINE]
Not Active: IC50 [1] | Ki [1] | IC50 [2] | IC50 (Cathepsin G) | IC50 [3] | Ki [3] | IC50 (Thromboxane-A synthase) | IC50 [4] | Ki [4] | IC50 [5] | Ki [5] | IC50 [6]

C[C@H](CS)C(=O)N1CCC[C@H]1C(=O)O [CAPTOPRIL]
Not Active: IC50 [1] | Ki [1] | IC50 [2] | IC50 (Cathepsin G) | IC50 [3] | Ki [3] | IC50 (Thromboxane-A synthase) | IC50 [4] | Ki [4] | IC50 [5] | Ki [5] | IC50 [6]

CC(C)(Oc1ccc(Cl)cc1)C(=O)O [CLOFIBRIC ACID]
Not Active: IC50 [1] | Ki [1] | IC50 [2] | IC50 (Cathepsin G) | IC50 [3] | Ki [3] | IC50 (Thromboxane-A synthase) | IC50 [4] | Ki [4] | IC50 [5] | Ki [5] | IC50 [6]

OC(Cn1cncn1)(Cn1cncn1)c1ccc(F)cc1F [FLUCONAZOLE]
Not Active: IC50 [1] | Ki [1] | IC50 [2] | IC50 (Cathepsin G) | IC50 [3] | Ki [3] | IC50 (Thromboxane-A synthase) | IC50 [4] | Ki [4] | IC50 [5] | Ki [5] | IC50 [6]

O=C1CC[C@@H](N2C(=O)c3ccccc3C2=O)C(=O)N1
Not Active: IC50 [1] | Ki [1] | IC50 [2] | IC50 (Cathepsin G) | IC50 [3] | Ki [3] | IC50 (Thromboxane-A synthase) | IC50 [4] | Ki [4] | IC50 [5] | Ki [5] | IC50 [6]

Reference: ChEMBL document CHEMBL1909046, “DrugMatrix in vitro pharmacology data”
